As a reminder, the speed of sound is how fast a sound wave travels through the sample. A word on the viscosity: it is the resistance of a fluid to flow.

The data set can be described thus: xn = mol fraction of the nth substance listed. The conditions noted are these: 303.15 K, 100 kPa.

Take `CCC(=O)[O-].OCC[NH2+]c1ccccc1` + O: the electrical conductivity reads like this: (x2 = 0.015) 0.0004 S/m; (x2 = 0.0341) 0.0004 S/m; (x2 = 0.0417) 0.0004 S/m; (x2 = 0.0546) 0.0004 S/m. Moreover, the speed of sound runs as follows: (x2 = 0.015) 1522.1 m/s; (x2 = 0.0341) 1524.3 m/s; (x2 = 0.0417) 1525.3 m/s; (x2 = 0.0546) 1526.8 m/s. Also, the viscosity came to 16.6 mPa·s (x2 = 0.015), 15.2 mPa·s (x2 = 0.0341), 14.7 mPa·s (x2 = 0.0417) and 13.8 mPa·s (x2 = 0.0546).

Take `CCCC(=O)[O-].OCC[NH2+]c1ccccc1` + O: the electrical conductivity runs as follows: (x2 = 0.016) 0.0005 S/m; (x2 = 0.0386) 0.0005 S/m; (x2 = 0.0546) 0.0005 S/m; (x2 = 0.0724) 0.0005 S/m. The speed of sound is on record as 1508.9 m/s (x2 = 0.016), 1509.4 m/s (x2 = 0.0386), 1509.8 m/s (x2 = 0.0546) and 1510.4 m/s (x2 = 0.0724). The same compound had a viscosity (x2 = 0.016) of 18.1 mPa·s, a viscosity (x2 = 0.0386) of 16.9 mPa·s, a viscosity (x2 = 0.0546) of 16.3 mPa·s and a viscosity (x2 = 0.0724) of 15.4 mPa·s.

These data come from a compilation of properties of binary mixtures (doi:10.1016/j.molliq.2017.06.010).
